From patent US20230407243A1, “GENETIC PLATFORM TO INVESTIGATE THE FUNCTIONS OF BACTERIAL DRUG EFFLUX PUMPS” (priority 2022, published 2023)

Tests used:
Format in all cases: cell-based, Escherichia coli
EKO-35 araC::acrBD408A = test: MIC susceptibility profiling, efflux platform
Procedure, shortened: (§1)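 MHB II broth microdilution; inoculum from 18 h LB culture, PBS-adjusted to OD600 ~1.0, then 1/2000 dilution. Compounds 2-fold titrated, duplicates, DMSO solvent control. 18 h, 37 °C, 900 rpm; background-corrected OD600 end point.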

EKO-35 araC::acrD = test: MIC susceptibility profiling, efflux platform
Procedure, shortened: as §1

EKO-35 araC::acrEF = test: MIC susceptibility profiling, efflux platform
Procedure, shortened: as §1

EKO-35 araC::emrAB = test: MIC susceptibility profiling, efflux platform
Procedure, shortened: as §1

EKO-35 araC::emrKY = test: MIC susceptibility profiling, efflux platform
Procedure, shortened: as §1

EKO-35 araC::macAB = test: MIC susceptibility profiling, efflux platform
Procedure, shortened: as §1

EKO-35 araC::mdtBC = test: MIC susceptibility profiling, efflux platform
Procedure, shortened: as §1

[1] = test system: EKO-35 araC::mexCD (MexCD from P. aeruginosa); test: MIC susceptibility profiling, efflux platform
Procedure, shortened: as §1

EKO-35 araC::acrB Pore = test: MIC susceptibility profiling, porinated efflux platform
Procedure, shortened: (§2)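 E. coli strains carrying a genomically integrated constitutive fhuA ΔC/Δ4L pore were grown 18 h in LB at 37 °C, then diluted 1/2000 in MHB II from OD600 ~1.0. Compounds were tested in duplicate, 2-fold serial titration, for 18 h at 37 °C with shaking. MIC came from OD600 with the pre-incubation background subtracted.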

[2] = test system: EKO-35 araC::acrBD408A Pore; test: as above
Procedure, shortened: as §2

EKO-35 araC::acrD Pore = test: as above
Procedure, shortened: as §2

EKO-35 araC::acrEF Pore = test: as above
Procedure, shortened: as §2

EKO-35 araC::emrAB Pore = test: as above
Procedure, shortened: as §2

EKO-35 araC::emrKY Pore = test: as above
Procedure, shortened: as §2

EKO-35 araC::macAB Pore = test: as above
Procedure, shortened: as §2

EKO-35 araC::mdtBC Pore = test: as above
Procedure, shortened: as §2

EKO-35 araC::mdtEF Pore = test: as above
Procedure, shortened: as §2

EKO-35 araC::mexCD Pore = test: as above
Procedure, shortened: as §2

CC(=O)NC[C@H]1CN(c2ccc(N3CCOCC3)c(F)c2)C(=O)O1 [linezolid]
1 fold: Fold change of MICs (EKO-35 araC::acrBD408A; EKO-35 araC::acrBD408A compared to EKO-35) | Fold change of MICs (EKO-35 araC::acrD; EKO-35 araC::acrD compared to EKO-35) | Fold change of MICs (EKO-35 araC::emrAB; EKO-35 araC::emrAB compared to EKO-35) | Fold change of MICs (EKO-35 araC::emrKY; EKO-35 araC::emrKY compared to EKO-35) | Fold change of MICs (EKO-35 araC::macAB; EKO-35 araC::macAB compared to EKO-35) | Fold change of MICs (EKO-35 araC::mdtBC; EKO-35 araC::mdtBC compared to EKO-35) | Fold changes of MICs ([2]; EKO-35 araC::acrBD408A Pore compared to EKO-35-Pore) | Fold changes of MICs (EKO-35 araC::emrKY Pore; EKO-35 araC::emrKY Pore compared to EKO-35-Pore) | Fold changes of MICs (EKO-35 araC::macAB Pore; EKO-35 araC::macAB Pore compared to EKO-35-Pore) | Fold changes of MICs (EKO-35 araC::mdtBC Pore; EKO-35 araC::mdtBC Pore compared to EKO-35-Pore)
2 fold: Fold change of MICs (EKO-35 araC::acrEF; EKO-35 araC::acrEF compared to EKO-35) | Fold change of MICs ([1]; EKO-35 araC::mexCD compared to EKO-35) | Fold changes of MICs (EKO-35 araC::acrD Pore; EKO-35 araC::acrD Pore compared to EKO-35-Pore) | Fold changes of MICs (EKO-35 araC::acrEF Pore; EKO-35 araC::acrEF Pore compared to EKO-35-Pore) | Fold changes of MICs (EKO-35 araC::emrAB Pore; EKO-35 araC::emrAB Pore compared to EKO-35-Pore) | Fold changes of MICs (EKO-35 araC::mdtEF Pore; EKO-35 araC::mdtEF Pore compared to EKO-35-Pore) | Fold changes of MICs (EKO-35 araC::mexCD Pore; EKO-35 araC::mexCD Pore compared to EKO-35-Pore)
15.6 µg/mL: MIC (EKO-35 araC::acrEF; Escherichia coli, Table 13A, non-porinated, technical duplicate, read-out: Minimum Inhibitory Concentration, EKO-35 araC::acrEF) | MIC ([1]; Table 13B, non-porinated, technical duplicate, read-out: Minimum Inhibitory Concentration, EKO-35 araC::mexCD)
16 fold: Fold changes of MICs (EKO-35 araC::acrB Pore; EKO-35 araC::acr-B Pore compared to EKO-35-Pore)
7.81 µg/mL: MIC (EKO-35 araC::acrBD408A; Escherichia coli, Table 13B, non-porinated, technical duplicate, read-out: Minimum Inhibitory Concentration, EKO-35 araC::acrBD408A) | MIC (EKO-35 araC::acrD; Escherichia coli, Table 13A, non-porinated, technical duplicate, read-out: Minimum Inhibitory Concentration, EKO-35 araC::acrD) | MIC (EKO-35 araC::acrD Pore; Escherichia coli, Table 14A, porinated, technical duplicate, read-out: Minimum inhibitory concentration, EKO-35 araC::acrD Pore) | MIC (EKO-35 araC::acrEF Pore; Escherichia coli, Table 14A, porinated, technical duplicate, read-out: Minimum inhibitory concentration, EKO-35 araC::acrEF Pore) | MIC (EKO-35 araC::emrAB Pore; Escherichia coli, EKO-35 araC::emrAB Pore, technical duplicate, read-out: Minimum inhibitory concentration) | MIC (EKO-35 araC::mdtEF Pore; Escherichia coli, Table 14A, porinated, technical duplicate, read-out: Minimum inhibitory concentration, EKO-35 araC::mdtEF Pore) | MIC (EKO-35 araC::mexCD Pore; Escherichia coli, EKO-35 araC::mexCD Pore, technical duplicate, read-out: Minimum inhibitory concentration)
3.91 µg/mL: MIC (EKO-35 araC::emrAB; Escherichia coli, Table 13B, non-porinated, technical duplicate, read-out: Minimum Inhibitory Concentration, EKO-35 araC::emrAB) | MIC (EKO-35 araC::emrKY; Escherichia coli, Table 13B, non-porinated, technical duplicate, read-out: Minimum Inhibitory Concentration, EKO-35 araC::emrKY) | MIC (EKO-35 araC::macAB; Escherichia coli, Table 13B, non-porinated, technical duplicate, read-out: Minimum Inhibitory Concentration, EKO-35 araC::macAB) | MIC (EKO-35 araC::mdtBC; Escherichia coli, Table 13B, non-porinated, technical duplicate, read-out: Minimum Inhibitory Concentration, EKO-35 araC::mdtBC) | MIC ([2]; Escherichia coli, EKO-35 araC::acrBD408A Pore, technical duplicate, read-out: Minimum inhibitory concentration) | MIC (EKO-35 araC::emrKY Pore; Escherichia coli, EKO-35 araC::emrKY Pore, technical duplicate, read-out: Minimum inhibitory concentration) | MIC (EKO-35 araC::macAB Pore; Escherichia coli, EKO-35 araC::macAB Pore, technical duplicate, read-out: Minimum inhibitory concentration) | MIC (EKO-35 araC::mdtBC Pore; Escherichia coli, EKO-35 araC::mdtBC Pore, technical duplicate, read-out: Minimum inhibitory concentration)
62.5 µg/mL: MIC (EKO-35 araC::acrB Pore; Escherichia coli, Table 14A, porinated, technical duplicate, read-out: Minimum inhibitory concentration, EKO-35 araC::acrB Pore)
